Assay results published in patent publication US20240246916A1, “7-NITRO-8-HYDROXYQUINOLINE DERIVATIVES, PREPARATION METHOD THEREFORE AND MEDICAL USE THEREOF” (Jiangsu Yahong Meditech Co., Ltd., priority 2021, published 2024).
pIC50: −log10 of the molar value. ≈ marks a conversion by molar mass, not a printed value.

Key:
Type in all cases: cell-based
[1] = system: Bladder cancer cell line UM-UC-3; assay: Inhibitory activity on cancer cells, CellTiter-Glo viability, UM-UC-3; conditions: Homo sapiens, UMUC3, 72 hours treatment
Procedure: (§1) HUVEC (purchased from Allcells Biological Technology (Shanghai) Co., Ltd.); UM-UC-3 (ATCC); LNCaP (ATCC); RM-1 (purchased from Nanjing Cobioer Biosciences Co., Ltd.) (1) On the first day, the cells were seeded in a 96-well plate, and the previous medium was poured off. 5 mL of DPBS was added to wash the cells, and then removed by a pipette and discarded. Then, 1 mL of trypsin (0.25%) was added, and the plate was placed in a cell culture incubator at 37 °C, 5% CO2 for digestion, and taken out after about 2 to 5 minutes. New corresponding medium was added, and pipetted to resuspend the cells evenly, and the cells were then counted with an automated cell counter. Regarding HUVEC, the medium used was endothelial cell complete medium; regarding UM-UC-3, the medium used was 89 v % EMEM+10 v % fetal bovine serum+1 v % penicillin-streptomycin double anti-body; regarding LNcaP, the medium used was 89 v % RPM11640+10 v % fetal bovine serum+1 v % penicillin-streptomycin double anti-body; and regarding RM1, the medium used was 89 v % DMEM+10 v % fetal bovine serum+1 v % penicillin-streptomycin double anti-body. (2) HUVEC cells were seeded in columns 1 to 11 of a 96-well plate (Corning, Cat. No. 3610) at a density of 2000 cells per well in 100 μL of medium, and the medium free of cell was added to the wells of column 12. The other three types of cells were also seeded, wherein UM-UC-3 and RM-1 cells were seeded at a density of 3000 cells per well, and LNCap cells were seeded at a density of 5000 cells per well. Then, the plate was placed in an incubator at 37° C., 5% CO2 for 24 hours. (3) On the second day, the compounds of the present invention and the reference drug nitroxoline (obtained according to the preparation method disclosed in the prior art) were diluted in gradient (2.5 folds, started at 100 μmol) to obtain 8 dose points (there were a total of 8 columns of wells; the first column of wells had the highest concentration, the concentration decreased in turn, and the last column of wells had the lowest concentration). 10 μL of the compound diluted in gradient was added to the 100 μL of cells in column 1 to column 10 with an 8-channel pipette. 10 μL of the corresponding medium containing 0.33 v % DMSO was added to column 11 and column 12. The plate was incubated in an incubator at 37° C., 5% CO2 for 72 hours (note: column 11 was used as MAX well with cells and no compounds; and column 12 was used as MIN well with no cells and no compounds). (4) After treating with the compounds of the present invention for 72 hours, the cell viability detection reagents in the above CellTiter-Glo® assay kit were added to the 96-well plate at 50 μL per well according to the instructions. The plate was shaken on a shaker in the dark for 5 to 10 minutes, and then the cell activity was determined by a multifunctional microplate reader. Finally, the growth inhibition of the compounds of the present invention on the cells was plotted by XLFIT 5.3 software, and the IC50 values of the compounds of the present invention were calculated.

[2] = system: Mouse prostate cancer cell line RM1; assay: Inhibitory activity on cancer cells, CellTiter-Glo viability, RM1; conditions: 72 hours treatment
Procedure: as §1

[3] = system: Prostate cancer cell line LNcaP; assay: Inhibitory activity on cancer cells, CellTiter-Glo viability, LNcaP; conditions: Homo sapiens, 72 hours treatment
Procedure: as §1

[4] = system: Acinetobacter baumannii (carbapenem-resistant clinical isolates; ATCC19606); assay: MIC by micro broth dilution (CLSI), Acinetobacter baumannii; conditions: Acinetobacter baumannii; for MIC50 / MIC90: ATCC19606, Clinical strain; for MIC50: read-out: MIC50; for MIC90: read-out: MIC90; for MIC: Standard strain ATCC19606, read-out: MIC
In short: (§2)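 MIC was read after 20 hours at 35±2° C in air, following CLSI 2019 M100 criteria. Test wells held cation-adjusted Mueller-Hinton broth, compound from 128 to 0.06 mg/L (DMSO-dissolved) and 10^5 CFU/mL final inoculum.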

[5] = system: Staphylococcus aureus (methicillin-resistant and sensitive clinical isolates; ATCC29213); assay: MIC by micro broth dilution (CLSI), Staphylococcus aureus; conditions: for MIC50 / MIC90: Clinical strain; for MIC50: read-out: MIC50; for MIC90: read-out: MIC90; for MIC: Standard strain ATCC29213, read-out: MIC
In short: as §2

[6] = system: Escherichia coli (carbapenem-resistant clinical isolate; ATCC25922); assay: MIC by micro broth dilution (CLSI), Escherichia coli; conditions: Escherichia coli; for MIC50 / MIC90: ATCC25922, Clinical strain; for MIC50: read-out: MIC50; for MIC90: read-out: MIC90; for MIC: Standard strain ATCC25922, read-out: MIC
In short: as §2

[7] = system: Endothelial cell line HUVEC; assay: Inhibitory activity on cells, CellTiter-Glo viability, HUVEC; conditions: Homo sapiens, 72 hours treatment
Procedure: as §1

Structure (SMILES)	pIC50 [1]	pIC50 [2]	pIC50 [3]	MIC50 [4]	MIC90 [4]	MIC [4]	MIC50 [5]	MIC90 [5]	MIC [5]	MIC50 [6]	MIC90 [6]	MIC [6]	pIC50 [7]
COC(=O)N1CCN(c2ccnc3c(O)c([N+](=O)[O-])cc(Cl)c23)CC1 [Example 31, Methyl 4-(5-chloro-8-hydroxy-7-nitroquinolin-4-yl)-piperazine-1-carboxylate]	6.03	6.34	6.02	> 128 µg/mL	> 128 µg/mL	> 128 µg/mL	> 128 µg/mL	> 128 µg/mL	> 128 µg/mL	> 128 µg/mL	> 128 µg/mL	> 128 µg/mL	5.79
O=[N+]([O-])c1ccc2c(C3CCCCC3)ccnc2c1O [Example 32, 4-Cyclohexyl-7-nitroquinolin-8-ol]	5.96	6.22	6.64	32 µg/mL (≈ 118 µM)	32 µg/mL (≈ 118 µM)	32 µg/mL (≈ 118 µM)	1 µg/mL (≈ 3.67 µM)	1 µg/mL (≈ 3.67 µM)	1 µg/mL (≈ 3.67 µM)	64 µg/mL (≈ 235 µM)	64 µg/mL (≈ 235 µM)	64 µg/mL (≈ 235 µM)	6.05
CC(=O)N1CCN(c2ccnc3c(O)c([N+](=O)[O-])cc(Cl)c23)CC1 [Example 33, 4-(5-Chloro-8-hydroxy-7-nitroquinolin-4-yl)-1-acetylpiperazine]	4.30	4.74	4.82	> 128 µg/mL	> 128 µg/mL	> 128 µg/mL	32 µg/mL (≈ 91.2 µM)	32 µg/mL (≈ 91.2 µM)	32 µg/mL (≈ 91.2 µM)	> 128 µg/mL	> 128 µg/mL	> 128 µg/mL	4.77
COc1ccnc2c(O)c([N+](=O)[O-])cc(Cl)c12 [Example 34, 5-Chloro-4-methoxy-7-nitroquinolin-8-ol]	4.85	4.89	5.17	32 µg/mL (≈ 126 µM)	32 µg/mL (≈ 126 µM)	32 µg/mL (≈ 126 µM)	4 µg/mL (≈ 15.7 µM)	8 µg/mL (≈ 31.4 µM)	4 µg/mL (≈ 15.7 µM)	8 µg/mL (≈ 31.4 µM)	32 µg/mL (≈ 126 µM)	8 µg/mL (≈ 31.4 µM)	5.19
CN(C)C(=O)N1CCN(c2ccnc3c(O)c([N+](=O)[O-])cc(Cl)c23)CC1 [Example 35, 4-(5-Chloro-8-hydroxy-7-nitroquinolin-4-yl)-N,N-dimethylpiperazine-1-carboxamide]	4.30	< 4.30	4.51	> 128 µg/mL	> 128 µg/mL	> 128 µg/mL	> 128 µg/mL	> 128 µg/mL	> 128 µg/mL	> 128 µg/mL	> 128 µg/mL	> 128 µg/mL	4.57
O=[N+]([O-])c1cc(Cl)c2c(N3CCCCC3)ccnc2c1O [Example 36, 5-Chloro-7-nitro-4-piperidinylquinolin-8-ol]	5.62	5.55	6.02	> 128 µg/mL	> 128 µg/mL	> 128 µg/mL	8 µg/mL (≈ 26 µM)	8 µg/mL (≈ 26 µM)	8 µg/mL (≈ 26 µM)	> 128 µg/mL	> 128 µg/mL	> 128 µg/mL	5.83

The next lines start with results.

pIC50 [1]	pIC50 [2]	pIC50 [3]	MIC50 [4]	MIC90 [4]	MIC [4]	MIC50 [5]	MIC90 [5]	MIC [5]	MIC50 [6]	MIC90 [6]	MIC [6]	Structure (SMILES)	pIC50 [7]
< 4.30	< 4.30	4.39	> 128 µg/mL	> 128 µg/mL	> 128 µg/mL	128 µg/mL (≈ 415 µM)	> 128 µg/mL	128 µg/mL (≈ 415 µM)	> 128 µg/mL	> 128 µg/mL	> 128 µg/mL	O=[N+]([O-])c1cc(Cl)c2c(N3CCNCC3)ccnc2c1O [Example 37, 5-Chloro-7-nitro-4-(piperazin-1-yl)quinolin-8-ol]	< 4.30
5.17	5.52	5.73	128 µg/mL (≈ 379 µM)	128 µg/mL (≈ 379 µM)	128 µg/mL (≈ 379 µM)	8 µg/mL (≈ 23.7 µM)	16 µg/mL (≈ 47.4 µM)	8 µg/mL (≈ 23.7 µM)	> 128 µg/mL	> 128 µg/mL	128 µg/mL (≈ 379 µM)	COC1CCN(c2ccnc3c(O)c([N+](=O)[O-])cc(Cl)c23)CC1 [Example 38, 5-Chloro-4-(4-methoxypiperidin-1-yl)-7-nitroquinolin-8-ol]	5.63
6.02	5.90	6.37	> 128 µg/mL	> 128 µg/mL	> 128 µg/mL	4 µg/mL (≈ 10.6 µM)	8 µg/mL (≈ 21.3 µM)	4 µg/mL (≈ 10.6 µM)	> 128 µg/mL	> 128 µg/mL	> 128 µg/mL	O=[N+]([O-])c1cc(Cl)c2c(N3CCC(C(F)(F)F)CC3)ccnc2c1O [Example 39, 5-Chloro-7-nitro-4-(4-(trifluoromethyl)piperidin-1-yl)quinolin-8-ol]	5.95
4.61	4.94	4.90	128 µg/mL (≈ 397 µM)	> 128 µg/mL	> 128 µg/mL	32 µg/mL (≈ 99.1 µM)	32 µg/mL (≈ 99.1 µM)	32 µg/mL (≈ 99.1 µM)	128 µg/mL (≈ 397 µM)	> 128 µg/mL	64 µg/mL (≈ 198 µM)	CN1CCN(c2ccnc3c(O)c([N+](=O)[O-])cc(Cl)c23)CC1 [Example 40]	4.72
5.99	5.69	6.32	> 128 µg/mL	> 128 µg/mL	> 128 µg/mL	32 µg/mL (≈ 95.3 µM)	32 µg/mL (≈ 95.3 µM)	32 µg/mL (≈ 95.3 µM)	> 128 µg/mL	> 128 µg/mL	> 128 µg/mL	CC1(C)CCN(c2ccnc3c(O)c([N+](=O)[O-])cc(Cl)c23)CC1 [Example 41, 5-Chloro-4-(4,4-dimethylpiperidin-1-yl)-7-nitroquinolin-8-ol]	5.69
4.38	4.60	4.76	> 128 µg/mL	> 128 µg/mL	128 µg/mL (≈ 436 µM)	32 µg/mL (≈ 109 µM)	32 µg/mL (≈ 109 µM)	32 µg/mL (≈ 109 µM)	> 128 µg/mL	> 128 µg/mL	128 µg/mL (≈ 436 µM)	O=[N+]([O-])c1cc(Cl)c2c(N3CCCC3)ccnc2c1O [Example 42, 5-Chloro-7-nitro-4-(pyrrolidin-1-yl)quinolin-8-ol]	4.48
4.91	4.97	5.20	128 µg/mL (≈ 447 µM)	128 µg/mL (≈ 447 µM)	128 µg/mL (≈ 447 µM)	8 µg/mL (≈ 27.9 µM)	8 µg/mL (≈ 27.9 µM)	8 µg/mL (≈ 27.9 µM)	128 µg/mL (≈ 447 µM)	128 µg/mL (≈ 447 µM)	128 µg/mL (≈ 447 µM)	O=[N+]([O-])c1cc(Cl)c2c(OCCF)ccnc2c1O [Example 43, 5-Chloro-4-(2-fluoroethoxy)-7-nitroquinolin-8-ol]	5.12
< 4.30	< 4.30	< 4.30	> 128 µg/mL	> 128 µg/mL	> 128 µg/mL	32 µg/mL (≈ 87.5 µM)	32 µg/mL (≈ 87.5 µM)	32 µg/mL (≈ 87.5 µM)	> 128 µg/mL	> 128 µg/mL	> 128 µg/mL	CNC(=O)N1CCN(c2ccnc3c(O)c([N+](=O)[O-])cc(Cl)c23)CC1 [Example 44, 4-(5-Chloro-8-hydroxy-7-nitroquinolin-4-yl)-N-methylpiperazine-1-carboxamide]	< 4.30
